{"source": "patent EP2987533B1", "about": "“7-substituted piperazin-1-yl fluoroquinolone compounds, their use in the treatment of cancer, pharmaceutical compositions and a method for preparation” (priority 2014, dated 2016)", "assay_type_in_all_cases": "cell-based", "key": {"A549/ATCC": {"system": "A549/ATCC", "test": "NCI five-dose SRB growth assay", "settings": "Homo sapiens; A549/ATCC (Non-Small Cell Lung Cancer), 48 h"}, "HS 578T": {"system": "HS 578T", "test": "NCI one-dose SRB growth assay", "settings": "Homo sapiens; HS 578T (Breast Cancer), 10^-5 M, 48 h; read-out: % Growth Inhibition (GI %)"}, "MDA-MB-435": {"system": "MDA-MB-435", "test": "NCI five-dose SRB growth assay", "settings": "Homo sapiens; MDA-MB-435 (Melanoma), 48 h"}, "CCRF-CEM": {"system": "CCRF-CEM", "test": "NCI five-dose SRB growth assay", "settings": "Homo sapiens; CCRF-CEM (Leukemia), 48 h"}, "COLO 205": {"system": "COLO 205", "test": "NCI five-dose SRB growth assay", "settings": "Homo sapiens; COLO 205 (Colon Cancer), 48 h"}, "UO-31": {"system": "UO-31", "test": "NCI five-dose SRB growth assay", "settings": "Homo sapiens; UO-31 (Renal Cancer), 48 h"}, "K-562": {"system": "K-562", "test": "NCI five-dose SRB growth assay", "settings": "Homo sapiens, K562; K-562 (Leukemia), 48 h"}, "HOP-92": {"system": "HOP-92", "test": "NCI five-dose SRB growth assay", "settings": "Homo sapiens; HOP-92 (Non-Small Cell Lung Cancer), 48 h"}}}
{"smiles": "CCn1cc(C(=O)O)c(=O)c2cc(F)c(N3CCN(S(=O)(=O)c4ccc(Cl)cc4)CC3)cc21", "note": "[Compound 1a]", "values": [{"measurement": "GI50", "setting": "A549/ATCC", "value": 2810, "unit": "nM"}, {"measurement": "inhibition at 10 µM", "setting": "HS 578T", "value": 81.1, "unit": "%"}, {"measurement": "GI50", "setting": "MDA-MB-435", "value": 2470, "unit": "nM"}, {"measurement": "GI50", "setting": "CCRF-CEM", "value": 2930, "unit": "nM"}, {"measurement": "GI50", "setting": "COLO 205", "value": 2620, "unit": "nM"}, {"measurement": "GI50", "setting": "UO-31", "value": 2070, "unit": "nM"}, {"measurement": "GI50", "setting": "K-562", "value": 2910, "unit": "nM"}]}
{"smiles": "CCn1cc(C(=O)O)c(=O)c2cc(F)c(N3CCN(S(=O)(=O)c4ccc(Cl)cc4Cl)CC3)cc21", "note": "[Compound 2a]", "values": [{"measurement": "GI50", "setting": "A549/ATCC", "value": 2890, "unit": "nM"}, {"measurement": "GI50", "setting": "HOP-92", "value": 1220, "unit": "nM"}, {"measurement": "GI50", "setting": "MDA-MB-435", "value": 1970, "unit": "nM"}, {"measurement": "GI50", "setting": "CCRF-CEM", "value": 3030, "unit": "nM"}, {"measurement": "GI50", "setting": "COLO 205", "value": 2440, "unit": "nM"}, {"measurement": "GI50", "setting": "UO-31", "value": 2200, "unit": "nM"}, {"measurement": "GI50", "setting": "K-562", "value": 4000, "unit": "nM"}]}
{"smiles": "O=C(O)c1cn(C2CC2)c2cc(N3CCN(S(=O)(=O)c4ccc(Cl)c(Cl)c4)CC3)c(F)cc2c1=O", "note": "[Compound 3b]", "values": [{"measurement": "GI50", "setting": "A549/ATCC", "value": 3080, "unit": "nM"}, {"measurement": "GI50", "setting": "HOP-92", "value": 1540, "unit": "nM"}, {"measurement": "GI50", "setting": "MDA-MB-435", "value": 2970, "unit": "nM"}, {"measurement": "GI50", "setting": "CCRF-CEM", "value": 2610, "unit": "nM"}, {"measurement": "GI50", "setting": "COLO 205", "value": 3500, "unit": "nM"}, {"measurement": "GI50", "setting": "UO-31", "value": 2580, "unit": "nM"}, {"measurement": "GI50", "setting": "K-562", "value": 3920, "unit": "nM"}]}
{"smiles": "O=c1[nH]cc(F)c(=O)[nH]1", "note": "[Compound 5-FU, 5-fluorouracil, reference compound]", "values": [{"measurement": "inhibition at 10 µM", "setting": "HS 578T", "value": "> 100", "unit": "%"}]}
{"smiles": "Cc1cc(C)c(S(=O)(=O)N2CCN(c3cc4c(cc3F)c(=O)c(C(=O)O)cn4C3CC3)CC2)c(C)c1", "note": "[Compound 6b]", "values": [{"measurement": "GI50", "setting": "A549/ATCC", "value": 2230, "unit": "nM"}, {"measurement": "GI50", "setting": "HOP-92", "value": 1520, "unit": "nM"}, {"measurement": "GI50", "setting": "CCRF-CEM", "value": 2800, "unit": "nM"}, {"measurement": "GI50", "setting": "COLO 205", "value": 3400, "unit": "nM"}, {"measurement": "GI50", "setting": "UO-31", "value": 1960, "unit": "nM"}]}
{"smiles": "CCn1cc(C(=O)O)c(=O)c2cc(F)c(N3CCN(S(=O)(=O)c4cccc5ccccc45)CC3)cc21", "note": "[Compound 7a]", "values": [{"measurement": "GI50", "setting": "A549/ATCC", "value": 2870, "unit": "nM"}, {"measurement": "GI50", "setting": "HOP-92", "value": 1250, "unit": "nM"}, {"measurement": "GI50", "setting": "MDA-MB-435", "value": 3130, "unit": "nM"}, {"measurement": "GI50", "setting": "CCRF-CEM", "value": 3670, "unit": "nM"}, {"measurement": "GI50", "setting": "COLO 205", "value": 2020, "unit": "nM"}, {"measurement": "GI50", "setting": "UO-31", "value": 2210, "unit": "nM"}, {"measurement": "GI50", "setting": "K-562", "value": 3930, "unit": "nM"}]}
